The values below come from patent publication US12514887B2, “Oncolytic tumor viruses and methods of use” (priority 2014, dated 2026).

In assay [1] the test system is HS578T subcutaneous xenografts. As to the kind of experiment: HS578T subcutaneous xenografts, AdSyn-CO335 study. The following applies: 28 days, 8 mg/kg rapamycin alone, no virus infection.
Procedure: Oncolytic activity of AdSyn-CO335 was tested in vitro and in vivo. HS578T cells were infected with a serial dilution of AdSyn-CO335. At 24, 48, 72 and 96 hours after infection, fresh rapamycin or AP21967 was added to 50 nM. The metabolic activity was quantified by WST-1 assay, and was normalized to uninfected cells with a matching drug treatment. […] To evaluate AdSyn-CO335 in vivo, HS578T subcutaneous xenografts were established in mice. […]
Two perpendicular tumor diameters (l and w) were measured weekly to follow tumor progression. Tumor volumes were calculated by use of the modified ellipsoid formula where vol=½ (l*w^2) (Euhus et al., J Surg Oncol 31(4):229-2341986; Tomayko et al., Cancer Chemother Pharmacol 24(3):148-154, 1989).
On days 0, 3, and 6, mice were injected intratumorally with 2×10^8 PFU of adenovirus diluted in 50 μl PBS. […] Body weight was monitored for toxicity, and tumor sizes were measured while blinded to treatment groups. […]
The target in the next assay is T1, mTOR (Homo sapiens, UniProt P42345+P62942).
T1 construct: endogenous in cells
The assay is described as follows: p70 S6K phosphorylation immunoblot. It counts as cell-based. The following applies: targeting concentrations. A general note: A western blot detects proteins with antibodies after separation by electrophoresis.

Turning to `CO[C@H]1C[C@@H]2CC[C@@H](C)[C@@](O)(O2)C(=O)C(=O)N2CCCC[C@H]2C(=O)O[C@H]([C@H](C)C[C@@H]2CC[C@@H](O)[C@H](OC)C2)CC(=O)[C@H](C)/C=C(\C)[C@@H](O)[C@@H](OC)C(=O)[C@H](C)C[C@H](C)/C=C/C=C/C=C/1C` [rapamycin, Rapamycin], the mean tumor volume in assay [1] stood at 229±49 mm^3. As to `CO[C@H]1[C@@H](O)[C@H](C)C[C@H](C)/C=C/C=C/C=C(\C)[C@@H](c2c[nH]c3c(C)cccc23)C[C@@H]2CC[C@@H](C)[C@@](O)(O2)C(=O)C(=O)N2CCCC[C@H]2C(=O)O[C@H]([C@H](C)C[C@@H]2CC[C@@H](O)[C@H](OC)C2)C[C@H](O)[C@H](C)/C=C(\C)[C@H]1O` [AP21967], the “phosphorylation of p70 S6K (mTOR inhibition)” value on mTOR is “does not inhibit mTOR at targeting concentrations”.
